Experiments:
Trypanosoma cruzi [1] = experiment: Antitypanosomal activity against benznidazole-resistant epimastigote stage of Trypanosoma cruzi Y assessed as parasite growth inhibition after 11 days by hemacytometric analysis; assay type: functional, organism-based
Trypanosoma cruzi [2] = experiment: Ratio of nifurtimox IC50 to compound IC50 for benznidazole-resistant trypomastigote stage of Trypanosoma cruzi Y; assay type: functional
Trypanosoma cruzi [3] = experiment: Ratio of benznidazole IC50 to compound IC50 for benznidazole-resistant trypomastigote stage of Trypanosoma cruzi Y; assay type: functional
Trypanosoma cruzi [4] = experiment: Antitypanosomal activity against benznidazole-resistant trypomastigote stage of Trypanosoma cruzi Y assessed as parasite growth inhibition after 24 hr by hemacytometric analysis; assay type: functional, organism-based
[5] = Cytotoxicity against Mus musculus BALB/c (mouse) splenocytes assessed as decrease in [3H]-thymidine incorporation after 24 hr by beta-radiation counting analysis; assay type: cell-based, Splenocyte; details: read-out: MNCC
[6] = Cytotoxicity against Mus musculus BALB/c (mouse) splenocytes assessed as decrease in [3H]-thymidine incorporation at 1 to 100 ug/mL after 24 hr by beta-radiation counting analysis relative to untreated control; assay type: cell-based; details: splenocyte
[7] = Trypanosoma cruzi, Y, 264 h, read-out: IC50
[8] = Trypanosoma cruzi, Y, 24 h, read-out: IC50

SMILES	IC50 (Trypanosoma cruzi [1]; [7]) [µM]	Ratio IC50 (Trypanosoma cruzi [2])	Ratio IC50 (Trypanosoma cruzi [3])	IC50 (Trypanosoma cruzi [4]; [8]) [µM]	MNTC at 24 h [5]	IC50 (Trypanosoma cruzi [1])	Activity [6]	IC50 (Trypanosoma cruzi [4])
Cc1ccc(C2=NOC3(SCc4ccccc4C3=O)C2c2ccc(C)cc2)cc1 (stereo unspecified)	19.1	3	3	3.78	50 µg/mL			
COc1ccc(C2C(c3ccc(C)cc3)=NOC23SCc2ccccc2C3=O)cc1 (stereo unspecified)	5.5			19	5 µg/mL			
COc1ccc(C2=NOC3(SCc4ccccc4C3=O)C2c2ccc(C)cc2)cc1 (stereo unspecified)	62.5	3	3	1.9	10 µg/mL			
COc1ccc(C2=NOC3(SCc4ccccc4C3=O)C2c2ccc(OC)cc2)cc1 (stereo unspecified)	1.95			1.5	50 µg/mL			
O=C1c2ccccc2CSC12ON=C(c1ccc(Cl)cc1)C2c1ccc([N+](=O)[O-])cc1 (stereo unspecified)	20.5			22	5 µg/mL			
Cc1ccc(C2C(c3ccc([N+](=O)[O-])cc3)=NOC23SCc2ccccc2C3=O)cc1 (stereo unspecified)	27.9			45.4	50 µg/mL			
COc1ccc(C2C(c3ccccc3)=NOC23CSc2ccccc2C3=O)cc1 (stereo unspecified)						Not Active	Non-toxic	Not Active
Cc1ccc(C2=NOC3(CSc4ccccc4C3=O)C2c2ccccc2)cc1 (stereo unspecified)						Not Active	Non-toxic	Not Active
COc1ccc(C2C(c3ccc(C)cc3)=NOC23CSc2ccccc2C3=O)cc1 (stereo unspecified)						Not Active	Non-toxic	Not Active
Cc1ccc(C2=NOC3(CSc4ccccc4C3=O)C2c2ccc([N+](=O)[O-])cc2)cc1 (stereo unspecified)						Not Active	Non-toxic	Not Active
O=C(Cn1ccnc1[N+](=O)[O-])NCc1ccccc1 [BENZNIDAZOLE]	6.6							
CC1CS(=O)(=O)CCN1/N=C/c1ccc([N+](=O)[O-])o1 (stereo unspecified) [NIFURTIMOX]					3.4 µM			

— ChEMBL document CHEMBL3046533, “Molecular drug design, synthesis and pharmacophore site identification of spiroheterocyclic compounds: Trypanosoma crusi inhibiting studies” (Med Chem Res, 2013)
